According to patent publication US20260001914A1, “MACROCYCLIC PEPTIDES TARGETING KRAS” (Merck Sharp & Dohme LLC, priority 2022, published 2026):
*1 amine or outer side, *2 acyl side, *3 side chain or, on linkers, in order; H or OH if unused. Where a SMILES comes first, the peptide text is derived from it. Bridges are numbered along the chain shown (N, C = ends). [ ]: non-standard residue; d: D form. Ala(pyrimidin-5-yl) = N[C@@H](Cc1cncnc1)C(=O)O; Phe(3-COOH) = N[C@@H](Cc1cccc(C(=O)O)c1)C(=O)O; NMePhe(3-Me) = CN[C@@H](Cc1cccc(C)c1)C(=O)O; NMePhe(4-Me) = CN[C@@H](Cc1ccc(C)cc1)C(=O)O; NMePhe(3-F) = CN[C@@H](Cc1cccc(F)c1)C(=O)O; NMePhe(4-F) = CN[C@@H](Cc1ccc(F)cc1)C(=O)O; X25 = O=C([C@H](Cc1ccc(F)nc1)N[*:1])[*:2]; X27 = Cc1ccc(C[C@H](N[*:1])C(=O)[*:2])cn1; X46 = O=C([C@H](Cc1cccnc1F)N[*:1])[*:2]; Phe(3-Me) = Cc1cccc(C[C@H](N)C(=O)O)c1; Phe(4-F) = N[C@@H](Cc1ccc(F)cc1)C(=O)O; Phe(4-Me) = Cc1ccc(C[C@H](N)C(=O)O)cc1; 1Nal = N[C@@H](Cc1cccc2ccccc12)C(=O)O; NHCH2CH2SCH2CO = O=C(CSCCN[*:1])[*:2]; Phe(2-F) = N[C@@H](Cc1ccccc1F)C(=O)O; NMe3Pal = CN[C@@H](Cc1cccnc1)C(=O)O; NMeY = CN[C@@H](Cc1ccc(O)cc1)C(=O)O; X1 = O=C(C12CC(CN[*:1])(C1)C2)[*:2]; Ala(cPr) = N[C@@H](CC1CC1)C(=O)O; NMeF = CN[C@@H](Cc1ccccc1)C(=O)O; PhLac = O=C(O)[C@@H](O)Cc1ccccc1; 3Pal = N[C@@H](Cc1cccnc1)C(=O)O; Ahp(2) = CCCCC[C@H](N)C(=O)O; Cba = N[C@@H](CC1CCC1)C(=O)O; hLeu = CC(C)CC[C@H](N)C(=O)O; αMeC = C[C@](N)(CS)C(=O)O; NMeA = CN[C@@H](C)C(=O)O; Nle = CCCC[C@H](N)C(=O)O

Target: phosphorylation levels of ERK1/2 in AsPC-1 (homozygous KRAS-G12D) cells (Homo sapiens, UniProt P01116, G12D)
Test: Cellular phospho-ERK assay in AsPC-1 cells (Alpha Screen), assay medium without fetal bovine serum;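 note: signal taken as phospho-ERK over total ERK per well, both detected in one multiplex bead assay, EC50 from four-parameter logistic fit of dose-response curves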
Assay type: cell-based
Details: phospho-ERK AlphaScreen, 18 h

phosphorylation levels of ERK1/2 in AsPC-1 (homozygous KRAS-G12D) cells, sequence (P01116 1-186 G12D): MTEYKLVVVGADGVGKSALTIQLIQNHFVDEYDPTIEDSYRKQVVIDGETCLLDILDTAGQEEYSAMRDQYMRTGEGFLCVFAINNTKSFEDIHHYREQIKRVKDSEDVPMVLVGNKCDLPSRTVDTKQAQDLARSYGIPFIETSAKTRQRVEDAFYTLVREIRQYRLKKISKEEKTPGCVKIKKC

Row | SMILES | EC50 [µM]
1 | CCCCC[C@@H]1NC(=O)[C@H](Cc2ccc(OC)cc2)NC(=O)[C@H](CC2CCC2)NC(=O)[C@H](Cc2cccnc2)NC(=O)[C@H](C)N(C)C(=O)[C@H](Cc2ccccc2)NC(=O)CSC[C@@](C)(C(N)=O)NC(=O)[C@H](Cc2ccccc2)N(C)C1=O [compound 158, cyclo(F-NMeA-3Pal-cBuA-TyrOMe-Ahp-NMeF-aMeCl-ClAc)] ({CH2CO}-F[NMeA][3Pal][Cba]Y(Me)[Ahp(2)][NMeF][αMeC]-NH2; thioether N-8) | > 50.8
2 | CCCC[C@@H]1NC(=O)[C@H](Cc2cccnc2)NC(=O)[C@H](C)N(C)C(=O)[C@H](Cc2ccccc2)NC(=O)CSC[C@@](C)(C(N)=O)NC(=O)[C@H](Cc2ccccc2)N(C)C(=O)[C@H](CCCC)NC(=O)[C@H](Cc2ccccc2F)NC1=O [compound 159, cyclo(F-NMeA-3Pal-Nle-Phe2F-Nle-NMeF-aMeCl-ClAc)] ({CH2CO}-F[NMeA][3Pal][Nle][Phe(2-F)][Nle][NMeF][αMeC]-NH2; thioether N-8) | 21
3 | CCCC[C@@H]1NC(=O)[C@H](Cc2cccnc2)NC(=O)[C@H](CCCNC(=N)N)NC(=O)[C@H](Cc2ccccc2)NC(=O)CSC[C@@](C)(C(N)=O)NC(=O)[C@H](Cc2ccccc2)N(C)C(=O)[C@H](CCCC)NC(=O)[C@H](Cc2ccccc2F)NC1=O [compound 160, cyclo(F-R-3Pal-Nle-Phe2F-Nle-NMeF-aMeCl-ClAc)] ({CH2CO}-FR[3Pal][Nle][Phe(2-F)][Nle][NMeF][αMeC]-NH2; thioether N-8) | > 50.8
4 | CCCC[C@@H]1NC(=O)[C@H](Cc2cccnc2)NC(=O)[C@H](C)N(C)C(=O)[C@H](Cc2ccccc2)NC(=O)C23CC(CNC(=O)[C@H](Cc4cccnc4)N(C)C(=O)[C@H](CCCC)NC(=O)[C@H](Cc4ccccc4F)NC1=O)(C2)C3 [compound 162, cyclo(F-NMeA-3Pal-Nle-Phe2F-Nle-NMe3Pal-amBCP)] (cyclo(F[NMeA][3Pal][Nle][Phe(2-F)][Nle][NMe3Pal][X1])) | > 50.8
5 | CCCC[C@@H]1NC(=O)[C@H](Cc2cccnc2)NC(=O)[C@H](C)N(C)C(=O)[C@H](Cc2cccnc2)NC(=O)C23CC(CNC(=O)[C@H](Cc4cccnc4)N(C)C(=O)[C@H](CCCC)NC(=O)[C@H](Cc4ccccc4F)NC1=O)(C2)C3 [compound 163, cyclo(3Pal-NMeA-3Pal-Nle-Phe2F-Nle-NMe3Pal-amBCP)] (cyclo([3Pal][NMeA][3Pal][Nle][Phe(2-F)][Nle][NMe3Pal][X1])) | > 50.8
6 | CCCC[C@@H]1NC(=O)[C@H](Cc2cccnc2)NC(=O)[C@H](C)N(C)C(=O)[C@H](Cc2ccc(C)nc2)NC(=O)C23CC(CNC(=O)[C@H](Cc4cccnc4)N(C)C(=O)[C@H](CCCC)NC(=O)[C@H](Cc4ccccc4F)NC1=O)(C2)C3 [compound 164, cyclo(4Me3Pal-NMeA-3Pal-Nle-Phe2F-Nle-NMe3Pal-amBCP)] (cyclo([3Pal][Nle][Phe(2-F)][Nle][NMe3Pal][X1][X27][NMeA])) | > 50.8
7 | CCCC[C@@H]1NC(=O)[C@H](Cc2cccnc2)NC(=O)[C@H](C)N(C)C(=O)[C@H](Cc2ccc(F)nc2)NC(=O)C23CC(CNC(=O)[C@H](Cc4cccnc4)N(C)C(=O)[C@H](CCCC)NC(=O)[C@H](Cc4ccccc4F)NC1=O)(C2)C3 [compound 165, cyclo(4F3Pal-NMeA-3Pal-Nle-Phe2F-Nle-NMe3Pal-amBCP)] (cyclo([3Pal][Nle][Phe(2-F)][Nle][NMe3Pal][X1][X25][NMeA])) | > 50.8
8 | CCCC[C@@H]1NC(=O)[C@H](Cc2cccnc2)NC(=O)[C@H](C)N(C)C(=O)[C@H](Cc2cccc(C)c2)NC(=O)C23CC(CNC(=O)[C@H](Cc4cccnc4)N(C)C(=O)[C@H](CCCC)NC(=O)[C@H](Cc4ccccc4F)NC1=O)(C2)C3 [compound 166, cyclo(Phe3Me-NMeA-3Pal-Nle-Phe2F-Nle-NMe3Pal-amBCP)] (cyclo([3Pal][Nle][Phe(2-F)][Nle][NMe3Pal][X1][Phe(3-Me)][NMeA])) | 32.3
9 | CCCC[C@@H]1NC(=O)[C@H](Cc2cccnc2)NC(=O)[C@H](C)N(C)C(=O)[C@H](Cc2ccc(F)cc2)NC(=O)C23CC(CNC(=O)[C@H](Cc4cccnc4)N(C)C(=O)[C@H](CCCC)NC(=O)[C@H](Cc4ccccc4F)NC1=O)(C2)C3 [compound 167, cyclo(Phe4F-NMeA-3Pal-Nle-Phe2F-Nle-NMe3Pal-amBCP)] (cyclo([3Pal][Nle][Phe(2-F)][Nle][NMe3Pal][X1][Phe(4-F)][NMeA])) | 42.8
10 | CCCC[C@@H]1NC(=O)[C@H](Cc2cccnc2)NC(=O)[C@H](C)N(C)C(=O)[C@H](Cc2ccc(O)cc2)NC(=O)C23CC(CNC(=O)[C@H](Cc4cccnc4)N(C)C(=O)[C@H](CCCC)NC(=O)[C@H](Cc4ccccc4F)NC1=O)(C2)C3 [compound 168, cyclo(Y-NMeA-3Pal-Nle-Phe2F-Nle-NMe3Pal-amBCP)] (cyclo(Y[NMeA][3Pal][Nle][Phe(2-F)][Nle][NMe3Pal][X1])) | 46.4
11 | CCCC[C@@H]1NC(=O)[C@H](Cc2cccnc2)NC(=O)[C@H](C)N(C)C(=O)[C@H](Cc2ccc(OC)cc2)NC(=O)C23CC(CNC(=O)[C@H](Cc4cccnc4)N(C)C(=O)[C@H](CCCC)NC(=O)[C@H](Cc4ccccc4F)NC1=O)(C2)C3 [compound 169, cyclo(TyrOMe-NMeA-3Pal-Nle-Phe2F-Nle-NMe3Pal-amBCP)] (cyclo([3Pal][Nle][Phe(2-F)][Nle][NMe3Pal][X1]Y(Me)[NMeA])) | > 50.8
12 | CCCC[C@@H]1NC(=O)[C@H](Cc2cccnc2)NC(=O)[C@H](C)N(C)C(=O)[C@H](Cc2ccc(C)cc2)NC(=O)C23CC(CNC(=O)[C@H](Cc4cccnc4)N(C)C(=O)[C@H](CCCC)NC(=O)[C@H](Cc4ccccc4F)NC1=O)(C2)C3 [compound 170, cyclo(Phe4Me-NMeA-3Pal-Nle-Phe2F-Nle-NMe3Pal-amBCP)] (cyclo([3Pal][Nle][Phe(2-F)][Nle][NMe3Pal][X1][Phe(4-Me)][NMeA])) | 37.2
13 | CCCC[C@@H]1NC(=O)[C@H](Cc2cncnc2)NC(=O)[C@H](C)N(C)C(=O)[C@H](Cc2ccccc2)OC(=O)C23CC(CNC(=O)[C@H](Cc4ccc(C)cc4)N(C)C(=O)[C@H](CCCC)NC(=O)[C@H](Cc4ccccc4F)NC1=O)(C2)C3 [compound 171, cyclo(FLac-NMeA-PyrimAla-Nle-Phe2F-Nle-NMePhe4Me-amBCP)] (cyclo([NMeA][Ala(pyrimidin-5-yl)][Nle][Phe(2-F)][Nle][NMePhe(4-Me)][X1][PhLac])) | 0.223
14 | CCCC[C@@H]1NC(=O)[C@H](Cc2cncnc2)NC(=O)[C@H](C)N(C)C(=O)[C@H](Cc2ccccc2)OC(=O)C23CC(CNC(=O)[C@H](Cc4cccc(C)c4)N(C)C(=O)[C@H](CCCC)NC(=O)[C@H](Cc4ccccc4F)NC1=O)(C2)C3 [compound 172, cyclo(FLac-NMeA-PyrimAla-Nle-Phe2F-Nle-NMePhe3Me-amBCP)] (cyclo([NMeA][Ala(pyrimidin-5-yl)][Nle][Phe(2-F)][Nle][NMePhe(3-Me)][X1][PhLac])) | 0.256
15 | CCCC[C@@H]1NC(=O)[C@H](Cc2cncnc2)NC(=O)[C@H](C)N(C)C(=O)[C@H](Cc2ccccc2)OC(=O)C23CC(CNC(=O)[C@H](Cc4ccc(F)cc4)N(C)C(=O)[C@H](CCCC)NC(=O)[C@H](Cc4ccccc4F)NC1=O)(C2)C3 [compound 173, cyclo(FLac-NMeA-PyrimAla-Nle-Phe2F-Nle-NMePhe4F-amBCP)] (cyclo([NMeA][Ala(pyrimidin-5-yl)][Nle][Phe(2-F)][Nle][NMePhe(4-F)][X1][PhLac])) | 0.994
16 | CCCC[C@@H]1NC(=O)[C@H](Cc2cncnc2)NC(=O)[C@H](C)N(C)C(=O)[C@H](Cc2ccccc2)OC(=O)C23CC(CNC(=O)[C@H](Cc4cccc(F)c4)N(C)C(=O)[C@H](CCCC)NC(=O)[C@H](Cc4ccccc4F)NC1=O)(C2)C3 [compound 174, cyclo(FLac-NMeA-PyrimAla-Nle-Phe2F-Nle-NMePhe3F-amBCP)] (cyclo([NMeA][Ala(pyrimidin-5-yl)][Nle][Phe(2-F)][Nle][NMePhe(3-F)][X1][PhLac])) | 0.734
17 | CCCC[C@@H]1NC(=O)[C@H](Cc2cncnc2)NC(=O)[C@H](C)N(C)C(=O)[C@H](Cc2ccccc2)OC(=O)C23CC(CNC(=O)[C@H](Cc4ccc(OC)cc4)N(C)C(=O)[C@H](CCCC)NC(=O)[C@H](Cc4ccccc4F)NC1=O)(C2)C3 [compound 175, cyclo(FLac-NMeA-PyrimAla-Nle-Phe2F-Nle-NMeYOMe-amBCP)] (cyclo([NMeA][Ala(pyrimidin-5-yl)][Nle][Phe(2-F)][Nle][NMeY](Me)[X1][PhLac])) | 0.439
18 | CCCC[C@@H]1NC(=O)[C@H](CCCCN)NC(=O)[C@H](CCCNC(=N)N)NC(=O)[C@H](Cc2cccc3ccccc23)NC(=O)CSCCNC(=O)[C@H](Cc2ccccc2)N(C)C(=O)[C@H](CCCC)NC(=O)[C@H](Cc2cccc(C(=O)O)c2)NC1=O [compound 197, cyclo(1Nal-R-K-Nle-Phe3COOH-Nle-NMeF-Cysteamine)-ClAc] (cyclo([1Nal]RK[Nle][Phe(3-COOH)][Nle][NMeF][NHCH2CH2SCH2CO])) | > 50.8
19 | CCCCC[C@@H]1NC(=O)[C@H](Cc2ccc(OC)cc2)NC(=O)[C@H](CC2CCC2)NC(=O)[C@H](Cc2cccnc2)NC(=O)[C@H](CCCNC(=N)N)NC(=O)[C@H](Cc2ccccc2)OC(=O)C23CC(CNC(=O)[C@H](Cc4ccccc4)N(C)C1=O)(C2)C3 [compound 211, cyclo(FLac-R-3Pal-cBuA-TyrOMe-Ahp-NMeF-amBCP)] (cyclo([PhLac]R[3Pal][Cba]Y(Me)[Ahp(2)][NMeF][X1])) | > 50.8
20 | CCCC[C@@H]1NC(=O)[C@H](Cc2cccnc2)NC(=O)[C@H](CCCNC(=N)N)NC(=O)[C@H](Cc2ccccc2)OC(=O)C23CC(CNC(=O)[C@H](Cc4ccccc4)N(C)C(=O)[C@H](CCCC)NC(=O)[C@H](Cc4ccccc4F)NC1=O)(C2)C3 [compound 212, cyclo(FLac-R-3Pal-Nle-Phe2F-Nle-NMeF-amBCP)] (cyclo([PhLac]R[3Pal][Nle][Phe(2-F)][Nle][NMeF][X1])) | 39.4
21 | CC(C)CC[C@@H]1NC(=O)[C@H](Cc2cccnc2F)NC(=O)[C@H](CC2CC2)NC(=O)[C@H](Cc2cncnc2)NC(=O)[C@H](C)N(C)C(=O)[C@H](Cc2ccccc2)OC(=O)C23CC(CNC(=O)[C@H](Cc4ccccc4)N(C)C1=O)(C2)C3 [compound 215, cyclo(FLac-NMeA-PyrimAla-cPrA-3Pal2F-hL-NMeF-amBCP)] (cyclo([Ala(cPr)][X46][hLeu][NMeF][X1][PhLac][NMeA][Ala(pyrimidin-5-yl)])) | 4.18
